One compound from patent publication US20190029974A1, “METHODS FOR TREATING SKIN DISORDERS AND CONDITIONS UTILIZING HAPTENS” (RXi Pharmaceuticals Corporation, priority 2015, published 2019) can be followed below.

Data set [1] can be described thus: Stability of 0.4% DPCP solutions in solvents at 50° C., reverse phase HPLC on a C18 column. In kind it is physicochemical. As for the experimental part: (§1) The compatibility and solubility of DPCP was determined in both isopropyl myristate (IPM) as well as Polysorbate 80 (PS80). […] Next, the stability of DPCP in these solvents was determined. A solution of 0.4% DPCP in isopropyl myristate and a solution of 0.4% DPCP in Polysorbate 80 was placed at 50° C. for two weeks. The stability of DPCP in these solvents was determined using reverse phase HPLC on a C18 column.
For the development of a gel, the stability of DPCP was determined in both Ethanol (ETOH) and Isopropanol (IPA) was determined (0.4% DPCP solutions in each solvent was placed at 50° C. for two weeks; FIG. 3. All solutions contained 0.1% BHT). […] However, DPCP was stable in IPA. The stability of DPCP in the above solvents was determined using reverse phase HPLC on a C18 column.

A short description of data set [2]: Solubility of DPCP in solvents for gel and ointment formulations. In kind it is physicochemical. As to the method:
as §1

For `O=c1c(-c2ccccc2)c1-c1ccccc1` [DPCP, Diphenylcyclopropenone], the “stability of DPCP in PS80” value in data set [1] (0.4% DPCP in Polysorbate 80, 50° C., two weeks) was “some degradation”. For the same compound, the “stability of DPCP in ETOH” value in data set [1] (0.4% DPCP in ethanol, 0.1% BHT, in the presence of citric acid, 50° C., two weeks) is given as “Some degradation”. Moreover, the “stability of DPCP in IPA” value in data set [1] (0.4% DPCP in isopropanol, 0.1% BHT, 50° C., two weeks) is recorded as “stable”. For the same compound, the “stability of DPCP in IPM” value in data set [1] (0.4% DPCP in isopropyl myristate, 50° C., two weeks) was “stable”. Moreover, the “effect of BHT on degradation of DPCP in PS80” value in data set [1] (PS80 with butylated hydroxytoloune (BHT)) was “reduce the amount of degradation”. Moreover, in data set [2] (Polysorbate 80 (PS80)), the “solubility of DPCP in PS80” value was “highly soluble”. In addition, the “solubility of DPCP in IPM” value in data set [2] (isopropyl myristate (IPM)) was “about 1.1 % w/w”.
